Each compound was assayed against wild-type human cardiac sodium channel, hNav1.5 (Homo sapiens, UniProt Q14524) (assay: Late INa screening assay (QPatch whole cell patch clamp, tefluthrin-enhanced late sodium current)). Details: HEK293 hNav1.5, late INa activated with 10 μM Tefluthrin.
Type: cell-based
Procedure: The late sodium current (Late INa) and peak sodium current (Peak INa) assays are performed on an automated electrophysiology platform, QPatch 16X (Sophion Bioscience, Copenhagen, Denmark), which uses the whole cell patch clamp technique to measure currents through the cell membrane of up to 16 cells at a time. The assay uses an HEK293 (human embryonic kidney) cell line heterologously expressing the wild-type human cardiac sodium channel, hNav1.5, purchased from Millipore (Billerica, Mass.). No beta subunits were coexpressed with the Na channel alpha subunit. Cells are maintained with standard tissue culture procedures and stable channel expression is maintained with 400 μg/mL Geneticin in the culture medium. Cells isolated for use on QPatch are incubated for 5 minutes in Detachin 1X (Genlantis, San Diego, USA) at 37° C. to ensure that 80-90% of the cells are single and not part of a cell cluster. Experiments are carried out at 23-25° C.
For both the Late INa and Peak INa assays, series resistance compensation is set to 100% and series resistance and whole-cell compensation are performed automatically. Currents are digitized at 25 kHz and low-pass filtered at 12 kHz and 10 kHz for the late and peak INa assays, respectively. Currents through open sodium channels are automatically recorded and stored in the Sophion Bioscience Oracle database (Sophion Bioscience, Copenhagen, Denmark). Analysis is performed using QPatch Assay and database software and data are compiled in Excel.
Compound stocks are routinely made by the Gilead Sample Bank in plastic vials to 10 mM in dimethyl sulfoxide (DMSO). In some cases, when compounds are not soluble in DMSO, they are made in 100% ethanol. Stocks are sonicated as necessary. The extracellular solution for screening Late INa is composed of: 140 mM NaCl, 4 mM KCl, 1.8 mM CaCl2, 0.75 mM MgCl2 and 5 mM HEPES with pH adjusted to 7.4 using NaOH. The intracellular solution used to perfuse the inside of the cells for both the Late INa and Peak INa assays contains: 120 mM CsF, 20 mM CsCl, 5 mM EGTA, 5 mM HEPES and pH adjusted to 7.4 with CsOH. Compounds are diluted in extracellular solution to 1 μM in glass vials and then transferred to glass well plates before robotic addition to the cells. A 0 mM Na extracellular solution (0 Na-ECF) is used at the end of each experiment for the Late INa and Peak INa assays to measure baseline current contains: 140 mM N-methyl-D-glucamine; 4 mM KCl; 1.8 mM CaCl2; 0.75 mM MgCl2; 5 mM HEPES and pH was adjusted to 7.4 with HCl.
For the hNav1.5 Late INa assay, sodium channels are activated every 10 seconds (0.1 Hz) by depolarizing the cell membrane to −20 mV for 250 milliseconds (ms) from a holding potential of −120 mV. In response to a −20 mV voltage step, typical hNav1.5 sodium currents activate rapidly to a peak negative current and then inactivate nearly completely within 3-4 ms.
Compounds were tested to determine their activity in blocking the late sodium current. Late INa was generated by adding 10 μM Tefluthrin (pyrethroid) to the extracellular solution while recording Na currents. To confirm the block of late INa observed using the automated screening method, a second late INa enhancer (ATX-II) and the manual patch clamp method were used. ATX-II and tefluthrin occupy distinct, non-overlapping binding sites and modify Na^+ channel function differently to increase late INa. Compounds tested have been found generally to inhibit the enhanced late INa caused by either late INa enhancer. For the purposes of the screening, late INa is defined as the mean current between 225 ms and 250 ms after stepping to −20 mV to activate Na channels. After establishing the whole cell recording configuration, late INa activator is added to each well 4 times over a 16-17 minute period so that the late component of the Na current reaches a stable value. Compounds were then added (typically at 1 μM), in the presence of the late INa activator, with 3 additions over the course of 7 or 8 minutes. […]

Sequence of wild-type human cardiac sodium channel, hNav1.5 (Q14524 whole entry): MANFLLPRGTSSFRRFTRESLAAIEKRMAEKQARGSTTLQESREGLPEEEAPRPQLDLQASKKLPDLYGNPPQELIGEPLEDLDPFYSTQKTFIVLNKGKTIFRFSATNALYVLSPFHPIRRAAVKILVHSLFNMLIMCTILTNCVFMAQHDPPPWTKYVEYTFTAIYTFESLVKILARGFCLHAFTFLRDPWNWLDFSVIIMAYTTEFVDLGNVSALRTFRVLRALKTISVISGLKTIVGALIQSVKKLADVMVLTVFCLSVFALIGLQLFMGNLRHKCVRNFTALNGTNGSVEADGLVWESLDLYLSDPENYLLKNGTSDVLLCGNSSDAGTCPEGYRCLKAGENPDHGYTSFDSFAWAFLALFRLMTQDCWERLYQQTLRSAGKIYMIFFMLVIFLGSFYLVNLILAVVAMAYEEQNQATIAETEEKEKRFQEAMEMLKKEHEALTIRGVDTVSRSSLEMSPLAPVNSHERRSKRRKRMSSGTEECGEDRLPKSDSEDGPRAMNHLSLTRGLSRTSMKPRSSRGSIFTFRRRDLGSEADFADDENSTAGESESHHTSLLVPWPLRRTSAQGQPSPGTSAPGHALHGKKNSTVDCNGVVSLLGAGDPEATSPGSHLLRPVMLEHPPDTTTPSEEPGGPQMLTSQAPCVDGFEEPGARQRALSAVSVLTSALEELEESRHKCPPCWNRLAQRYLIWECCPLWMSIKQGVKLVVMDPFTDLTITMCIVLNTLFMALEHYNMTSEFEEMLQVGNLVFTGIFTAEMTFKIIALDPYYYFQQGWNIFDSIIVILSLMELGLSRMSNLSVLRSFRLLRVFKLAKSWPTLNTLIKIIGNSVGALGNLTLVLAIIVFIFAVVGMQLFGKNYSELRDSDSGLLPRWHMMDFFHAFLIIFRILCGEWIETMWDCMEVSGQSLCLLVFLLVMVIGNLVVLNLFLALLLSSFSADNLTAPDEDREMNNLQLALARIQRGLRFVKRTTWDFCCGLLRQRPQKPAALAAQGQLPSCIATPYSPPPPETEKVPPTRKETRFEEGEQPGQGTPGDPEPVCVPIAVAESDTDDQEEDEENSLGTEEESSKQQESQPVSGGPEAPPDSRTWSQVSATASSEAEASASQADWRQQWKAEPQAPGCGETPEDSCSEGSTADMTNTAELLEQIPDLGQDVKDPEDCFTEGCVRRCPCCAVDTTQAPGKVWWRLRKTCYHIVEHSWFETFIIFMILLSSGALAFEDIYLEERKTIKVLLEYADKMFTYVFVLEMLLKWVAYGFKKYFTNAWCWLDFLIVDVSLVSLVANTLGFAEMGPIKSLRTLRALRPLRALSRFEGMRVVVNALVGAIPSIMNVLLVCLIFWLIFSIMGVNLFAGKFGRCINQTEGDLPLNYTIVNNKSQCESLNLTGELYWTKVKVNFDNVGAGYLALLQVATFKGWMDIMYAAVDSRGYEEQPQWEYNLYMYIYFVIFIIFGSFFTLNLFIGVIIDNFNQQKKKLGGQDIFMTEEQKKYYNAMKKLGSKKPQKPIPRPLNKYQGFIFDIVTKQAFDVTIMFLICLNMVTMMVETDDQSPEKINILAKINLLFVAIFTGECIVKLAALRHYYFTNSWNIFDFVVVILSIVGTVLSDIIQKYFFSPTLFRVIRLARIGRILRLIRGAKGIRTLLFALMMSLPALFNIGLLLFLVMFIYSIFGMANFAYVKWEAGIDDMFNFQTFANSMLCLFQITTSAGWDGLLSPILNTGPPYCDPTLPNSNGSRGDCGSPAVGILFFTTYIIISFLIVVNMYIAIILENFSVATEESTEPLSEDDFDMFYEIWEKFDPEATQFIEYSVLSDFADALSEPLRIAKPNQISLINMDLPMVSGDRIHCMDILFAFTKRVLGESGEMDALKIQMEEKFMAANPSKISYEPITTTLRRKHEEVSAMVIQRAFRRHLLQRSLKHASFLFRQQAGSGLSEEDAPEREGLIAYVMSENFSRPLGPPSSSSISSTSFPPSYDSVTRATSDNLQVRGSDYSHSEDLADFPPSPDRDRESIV

FC(F)(F)c1ccc(-c2ccc3c(c2)-c2nncn2CCO3)cc1 [Compound I-3, 10-(4-(trifluoromethyl)phenyl)-5,6-dihydrobenzo[f][1,2,4]triazolo[4,3-d][1,4]oxazepine] and Cc1cn2c(n1)-c1cc(-c3ccc(C(F)(F)F)cc3)ccc1OCC2 [Compound I-19, 2-methyl-10-(4-(trifluoromethyl)phenyl)-5,6-dihydrobenzo[f]imidazo[1,2-d][1,4]oxazepine] are the same in inhibition at 1 µM: 13% for the first, 13% for the second.

First: Cc1nnc2n1CCOc1ccc(-c3ccc(C(F)(F)F)cc3)cc1-2 [Compound I-4, 3-methyl-10-(4-(trifluoromethyl)phenyl)-5,6-dihydrobenzo[f][1,2,4]triazolo[4,3-d][1,4]oxazepine]
Second: FC(F)(F)c1ccc(-c2ccc3c(c2)-c2nnc(C4CC4)n2CCO3)cc1 [Compound I-5, 3-cyclopropyl-10-(4-(trifluoromethyl)phenyl)-5,6-dihydrobenzo[f][1,2,4]triazolo[4,3-d][1,4]oxazepine]
The inhibition at 1 µM of the first is lower: 10% for the first, 18% for the second.

First: FC(F)(F)c1ccc(-c2ccc3c(c2)-c2ncc(-c4ncccn4)n2CCO3)cc1 [Compound I-7, 3-(pyrimidin-2-yl)-10-(4-(trifluoromethyl)phenyl)-5,6-dihydrobenzo[f]imidazo[1,2-d][1,4]oxazepine]
Second: N#Cc1cnc2n1CCOc1ccc(-c3ccc(C(F)(F)F)cc3)cc1-2 [Compound I-16, 10-(4-(trifluoromethyl)phenyl)-5,6-dihydrobenzo[f]imidazo[1,2-d][1,4]oxazepine-3-carbonitrile]
The inhibition at 1 µM of the first is higher: 17% for the first, 1% for the second.

Going from FC(F)(F)c1ccc(-c2ccc3c(c2)C2=NCCCN2CCO3)cc1 [Compound I-8, 11-(4-(trifluoromethyl)phenyl)-3,4,6,7-tetrahydro-2H-benzo[f]pyrimido[1,2-d][1,4]oxazepine] to FC(F)(F)c1ccc(-c2ccc3c(c2)C(N2CCCC2)=NCCO3)cc1 [II-3, 5-(pyrrolidin-1-yl)-7-(4-(trifluoromethyl)phenyl)-2,3-dihydrobenzo[f][1,4]oxazepine], the inhibition at 1 µM rises from 9% to 25%.

Going from CC(=O)c1cnc2n1CCOc1ccc(-c3ccc(C(F)(F)F)cc3)cc1-2 [Compound I-15, 1-(10-(4-(trifluoromethyl)phenyl)-5,6-dihydrobenzo[f]imidazo[1,2-d][1,4]oxazepin-3-yl)ethanone] to O=C(O)c1cn2c(n1)-c1cc(-c3ccc(C(F)(F)F)cc3)ccc1OCC2 [Compound I-22, 10-(4-(trifluoromethyl)phenyl)-5,6-dihydrobenzo[f]imidazo[1,2-d][1,4]oxazepine-2-carboxylic acid], the inhibition at 1 µM falls from 12% to 5%.

Compared with Cc1cnc2n1CCOc1ccc(-c3ccc(OC(F)(F)F)cc3)cc1-2 [Compound I-17, 3-methyl-10-(4-(trifluoromethoxy)phenyl)-5,6-dihydrobenzo[f]imidazo[1,2-d][1,4]oxazepine], FC(F)(F)Oc1ccc(-c2ccc3c(c2)-c2ncc(C4CC4)n2CCO3)cc1 [Compound I-18, 3-cyclopropyl-10-(4-(trifluoromethoxy)phenyl)-5,6-dihydrobenzo[f]imidazo[1,2-d][1,4]oxazepine] is higher in inhibition at 1 µM: 14% for the first, 20% for the second.

Compared with FC(F)(F)c1ccc(-c2ccc3c(c2)-c2nc(C4CC4)cn2CCO3)cc1 [Compound I-20, 2-cyclopropyl-10-(4-(trifluoromethyl)phenyl)-5,6-dihydrobenzo[f]imidazo[1,2-d][1,4]oxazepine], Cn1cncc1-c1cn2c(n1)-c1cc(-c3ccc(C(F)(F)F)cc3)ccc1OCC2 [Compound I-23, 2-(1-methyl-1H-imidazol-5-yl)-10-(4-(trifluoromethyl)phenyl)-5,6-dihydrobenzo[f]imidazo[1,2-d][1,4]oxazepine] is lower in inhibition at 1 µM: 12% for the first, 3% for the second.

First: FC(F)(F)c1ccc(-c2ccc3c(c2)C(N2CCOCC2)=NCCO3)cc1 [II-1, 5-morpholino-7-(4-(trifluoromethyl)phenyl)-2,3-dihydrobenzo[f][1,4]oxazepine]
Second: NC1CN(C2=NCCOc3ccc(-c4ccc(C(F)(F)F)cc4)cc32)C1 [II-18, 1-(7-(4-(trifluoromethyl)phenyl)-2,3-dihydrobenzo[f][1,4]oxazepin-5-yl)azetidin-3-amine]
The inhibition at 1 µM of the first is higher: 21% for the first, 9% for the second.

Going from FC(F)(F)c1ccc(-c2ccc3c(c2)C(NC2CC2)=NCCO3)cc1 [II-4, N-cyclopropyl-7-(4-(trifluoromethyl)phenyl)-2,3-dihydrobenzo[f][1,4]oxazepin-5-amine] to CN(C1=NCCOc2ccc(-c3ccc(C(F)(F)F)cc3)cc21)C1CC1 [II-8, N-cyclopropyl-N-methyl-7-(4-(trifluoromethyl)phenyl)-2,3-dihydrobenzo[f][1,4]oxazepin-5-amine], the inhibition at 1 µM falls from 25% to 13%.

Going from CN(Cc1ccccc1)C1=NCCOc2ccc(-c3ccc(C(F)(F)F)cc3)cc21 [II-5, N-benzyl-N-methyl-7-(4-(trifluoromethyl)phenyl)-2,3-dihydrobenzo[f][1,4]oxazepin-5-amine] to FC(F)(F)c1ccc(-c2ccc3c(c2)C(NCc2ccccn2)=NCCO3)cc1 [II-10, N-(pyridin-2-ylmethyl)-7-(4-(trifluoromethyl)phenyl)-2,3-dihydrobenzo[f][1,4]oxazepin-5-amine], the inhibition at 1 µM rises from 28% to 32%.

First: FC1(F)CCN(C2=NCCOc3ccc(-c4ccc(C(F)(F)F)cc4)cc32)C1 [II-6, 5-(3,3-difluoropyrrolidin-1-yl)-7-(4-(trifluoromethyl)phenyl)-2,3-dihydrobenzo[f][1,4]oxazepine]
Second: OC[C@H]1CCN(C2=NCCOc3ccc(-c4ccc(C(F)(F)F)cc4)cc32)C1 [II-16, (S)-(1-(7-(4-(trifluoromethyl)phenyl)-2,3-dihydrobenzo[f][1,4]oxazepin-5-yl)pyrrolidin-3-yl)methanol]
The inhibition at 1 µM of the first is lower: 7% for the first, 13% for the second.

First: FC(F)(F)c1ccc(-c2ccc3c(c2)C(NCc2ncccn2)=NCCO3)cc1 [II-7, N-(pyrimidin-2-ylmethyl)-7-(4-(trifluoromethyl)phenyl)-2,3-dihydrobenzo[f][1,4]oxazepin-5-amine]
Second: Fc1cccnc1CNC1=NCCOc2ccc(-c3ccc(C(F)(F)F)cc3)cc21 [II-9, N-((3-fluoropyridin-2-yl)methyl)-7-(4-(trifluoromethyl)phenyl)-2,3-dihydrobenzo[f][1,4]oxazepin-5-amine]
The inhibition at 1 µM of the first is lower: 14% for the first, 23% for the second.

Going from CC(C)(C)OC(=O)NC1CN(C2=NCCOc3ccc(-c4ccc(C(F)(F)F)cc4)cc32)C1 [II-12, tert-butyl 1-(7-(4-(trifluoromethyl)phenyl)-2,3-dihydrobenzo[f][1,4]oxazepin-5-yl)azetidin-3-ylcarbamate] to CC(C)(C)OC(=O)N[C@H]1CCN(C2=NCCOc3ccc(-c4ccc(C(F)(F)F)cc4)cc32)C1 [II-13, (S)-tert-butyl 1-(7-(4-(trifluoromethyl)phenyl)-2,3-dihydrobenzo[f][1,4]oxazepin-5-yl)pyrrolidin-3-ylcarbamate], the inhibition at 1 µM rises from 9% to 15%.

Compared with FC(F)(F)c1ccc(-c2ccc3c(c2)C(NCCn2ccnc2)=NCCO3)cc1 [II-14, N-(2-(1H-imidazol-1-yl)ethyl)-7-(4-(trifluoromethyl)phenyl)-2,3-dihydrobenzo[f][1,4]oxazepin-5-amine], Cn1ccnc1CNC1=NCCOc2ccc(-c3ccc(C(F)(F)F)cc3)cc21 [II-17, N-((1-methyl-1H-imidazol-2-yl)methyl)-7-(4-(trifluoromethyl)phenyl)-2,3-dihydrobenzo[f][1,4]oxazepin-5-amine] is lower in inhibition at 1 µM: 17% for the first, 10% for the second.

Source: patent US9695192B2, “Fused heterocyclic compounds as ion channel modulators” (GILEAD SCIENCES, INC., priority 2011, dated 2017)
